Measurements reported in US20260152503A1, “SPIROBICYCLIC COMPOUNDS” (ACERAND THERAPEUTICS (HONG KONG) LIMITED, priority 2022, published 2026).

What was measured:
Type in all cases: cell-based
[1] = target: T1, FGFR3 (Homo sapiens, UniProt P22607); assay: pERK potency assay (In Cell ELISA), RT112 cells; details: RT112 (FGFR3 overexpression/FGFR3-TACC3 fusion) cells, 3 hours
T1 construct: RT112 (FGFR3 overexpression/FGFR3-TACC3 fusion); host or cells: RT112; the other entry of the earlier key: TACC3 (Q9Y6A5, Transforming acidic coiled-coil-containing protein 3)
Source text: (§1) The purpose of this assay is to measure the ability of test compounds to inhibit FGFR mediated downstream signaling cascades, i.e., ERK phosphorylation in cells with FGFR aberrations. FGFR aberrations become constitutively active and thus induces cascades of cellular signaling events that result in increased phosphorylation of ERK at Threonine 202 and Tyrosine 204 (pERK). The procedure called In Cell ELISA described below measures the level of cellular pERK in response to FGFR specific inhibitor compounds in FGFR aberrations of AN3CA (FGFR2/k310R, N549K), DMS114 (FGFR1 amplification), RT112 (FGFR3 overexpression/FGFR3-TACC3 fusion) and Hep3B (FGF19 amplification) cells. AN3CA, DMS114 and Hep3B cells are from ATCC. RT112 cells are from Sigma. DMS114 cells are grown and maintained using RPMI-1640 medium supplemented with 10% heat-inactivated fetal bovine serum. AN3CA, Hep3B and RT112 cells are grown and maintained using DMEM supplemented with 10% heat-inactivated fetal bovine serum. On the day before test compound addition, cells are plated in poly-D-lysine coated 96-well cell culture plates (Corning® BioCoat® Cat #356640) at 40000 cells/well/100 μL and grown overnight in a 37° C., 5% CO2 incubator. Test compounds are prepared with 4-fold serial dilutions in DMSO, with a top concentration of 10 μM. On the day of the assay, 50 μL of test compound diluted in media was added to each well of cell culture plate with the final concentration of compounds spanning from 0.000038 μM to 10 μM. After compound addition, cells are incubated for 3 hours at 37° C., 5% CO2 and then the culture medium is removed. Cells are fixed with 4% formaldehyde in phosphate-buffered saline (PBS) and incubated at RT for 20 min. The plate is then washed three times with PBST (PBS with 0.05% tween-20), followed by the incubation with 100 μL of pre-cooled methanol at −20° C. for 20 min. After incubation, methanol is removed, and the plate is washed once with PBST. Cells are permeabilized with 100 µL/well of 0.1% Triton X-100 in PBS at RT for 20 min and then quenched with quenching buffer (PBST containing 1% H2O2 and 0.1% sodium azide) for 20 min at RT with gentle shaking. After washing once with PBST, blocking buffer (250 ul/well, Pierce™ Protein-Free-PBS Blocking Buffer, Cat #37572) was then added to the cells for 1-h incubation at RT, followed by anti-pERK antibody (cell signaling, 1:1000 dilution in 5% BSA in PBST) incubation overnight at 4° C. and secondary antibody-HRP (Jackson immunoresearch, 1:3000 dilution in 5% BSA in PBST) incubation at RT for 1 h. PBST wash is carried out after each step three times. Before the addition of the substrate (Advansta ELISABright), the plate is washed with PBS twice to remove detergent residues. Cellular pERK level is determined using the microplate reader (Biotek Synergy H1) to detect the chemiluminescence signal. IC50 is determined by fitting a 4-parameter sigmoidal concentration-response model. FGFR wild type cells (H1975, PC-9 and AGS) are used to serve as negative control (FGFR selectivity) with the same assay procedures described above.

[2] = target: T2, FGFR1 (Homo sapiens, UniProt P11362); assay: pERK potency assay (In Cell ELISA), DMS114 cells; details: DMS114 (FGFR1 amplification) cells, 3 hours
T2 construct: DMS114 (FGFR1 amplification); host or cells: DMS114
Source text: as §1

[3] = target: T3, FGFR2 (Homo sapiens, UniProt P21802, K310R/N549K); assay: pERK potency assay (In Cell ELISA), AN3CA cells; details: for IC50: pERK, AN3CA (FGFR2/k310R, N549K) cells, 3 hours; for FGFR1 IC50/FGFR2 IC50 / FGFR3 IC50/FGFR2 IC50: selectivity ratio, pERK potency; for FGFR1 IC50/FGFR2 IC50: FGFR2 relative to FGFR1; for FGFR3 IC50/FGFR2 IC50: FGFR2 relative to FGFR3
T3 construct: in FGFR aberrations of AN3CA (FGFR2/k310R, N549K); host or cells: AN3CA
Source text: as §1

T2 sequence (P11362 22-822): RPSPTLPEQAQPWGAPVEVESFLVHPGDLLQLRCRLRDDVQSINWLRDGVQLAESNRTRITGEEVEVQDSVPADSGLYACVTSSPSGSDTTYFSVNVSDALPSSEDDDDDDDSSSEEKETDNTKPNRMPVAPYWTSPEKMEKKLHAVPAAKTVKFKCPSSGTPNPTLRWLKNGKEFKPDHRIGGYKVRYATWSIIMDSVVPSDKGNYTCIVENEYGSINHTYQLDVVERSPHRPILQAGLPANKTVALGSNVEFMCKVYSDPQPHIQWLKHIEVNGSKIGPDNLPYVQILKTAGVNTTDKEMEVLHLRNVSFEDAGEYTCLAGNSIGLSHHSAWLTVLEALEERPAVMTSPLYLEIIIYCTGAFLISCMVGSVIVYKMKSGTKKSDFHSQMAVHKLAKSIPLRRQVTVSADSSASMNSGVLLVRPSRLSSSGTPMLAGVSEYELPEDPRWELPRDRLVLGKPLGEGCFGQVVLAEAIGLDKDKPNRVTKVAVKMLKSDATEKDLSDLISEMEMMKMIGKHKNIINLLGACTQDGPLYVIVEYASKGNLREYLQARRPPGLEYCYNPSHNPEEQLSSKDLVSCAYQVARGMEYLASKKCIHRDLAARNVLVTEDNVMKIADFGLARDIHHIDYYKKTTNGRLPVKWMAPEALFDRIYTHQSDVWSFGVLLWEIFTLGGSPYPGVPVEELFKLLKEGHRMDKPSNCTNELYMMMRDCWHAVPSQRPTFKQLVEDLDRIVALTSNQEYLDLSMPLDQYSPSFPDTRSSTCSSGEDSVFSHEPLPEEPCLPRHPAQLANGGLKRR
T3 sequence (P21802 22-821 K310R/N549K): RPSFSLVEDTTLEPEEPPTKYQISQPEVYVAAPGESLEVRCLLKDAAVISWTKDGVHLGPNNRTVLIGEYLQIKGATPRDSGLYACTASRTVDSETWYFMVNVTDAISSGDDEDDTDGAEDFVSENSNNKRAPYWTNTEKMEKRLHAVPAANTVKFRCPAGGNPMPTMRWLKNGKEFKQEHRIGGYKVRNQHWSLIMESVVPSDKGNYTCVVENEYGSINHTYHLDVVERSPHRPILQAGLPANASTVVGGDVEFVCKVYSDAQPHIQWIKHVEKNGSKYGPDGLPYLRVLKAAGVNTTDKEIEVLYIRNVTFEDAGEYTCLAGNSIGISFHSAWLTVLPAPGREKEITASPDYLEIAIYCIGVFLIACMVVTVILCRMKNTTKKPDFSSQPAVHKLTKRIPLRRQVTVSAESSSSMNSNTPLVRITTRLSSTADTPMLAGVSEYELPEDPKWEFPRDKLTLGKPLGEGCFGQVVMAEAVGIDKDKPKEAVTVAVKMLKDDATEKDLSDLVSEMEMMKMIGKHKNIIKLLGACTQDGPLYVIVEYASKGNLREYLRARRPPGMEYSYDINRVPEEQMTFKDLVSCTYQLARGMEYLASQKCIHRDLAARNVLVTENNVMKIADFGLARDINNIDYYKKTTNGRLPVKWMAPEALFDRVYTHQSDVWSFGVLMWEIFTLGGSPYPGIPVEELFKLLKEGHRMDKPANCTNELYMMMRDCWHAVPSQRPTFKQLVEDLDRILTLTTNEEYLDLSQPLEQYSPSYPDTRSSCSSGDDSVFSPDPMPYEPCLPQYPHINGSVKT

Row | Compound | IC50 [1] | IC50 [2] | IC50 [3] | FGFR1 IC50/FGFR2 IC50 [3] | FGFR3 IC50/FGFR2 IC50 [3]
1 | C=CC(=O)N1CCC2(CC=C(c3c(-c4ccc(C#N)nc4)c4c(N)ncnc4n3C(F)F)CC2)CC1 [Example 37, 5-(6-(3-acryloyl-3-azaspiro[5.5]undec-8-en-9-yl)-4-amino-7-(difluoromethyl)-7H-pyrrolo[2,3-d]pyrimidin-5-yl)picolinonitrile] | > 100 nM | > 100 nM | 10 to 30 nM | G (a selectivity ratio greater than 150 but less than or equal to 500) | G (a selectivity ratio greater than 150 but less than or equal to 500)
2 | C=CC(=O)N1CCC2(CC=C(c3c(-c4ccnnc4)c4c(N)ncnc4n3C)CC2)CC1 [Example 31, 1-(9-(4-amino-7-methyl-5-(pyridazin-4-yl)-7H-pyrrolo[2,3-d]pyrimidin-6-yl)-3-azaspiro[5.5]undec-8-en-3-yl)prop-2-en-1-one] | > 100 nM | > 100 nM | > 100 nM |  | 
3 | C=CC(=O)N1CCC2(CC=C(c3c(-c4ccc(OC5CC(C)C5)nc4)c4c(N)ncnc4n3C)CC2)CC1 (centres unmarked) [Example 25, 1-(9-(4-amino-7-methyl-5-(6-(3-methylcyclobutoxy)pyridin-3-yl)-7H-pyrrolo[2,3-d]pyrimidin-6-yl)-3-azaspiro[5.5]undec-8-en-3-yl)prop-2-en-1-one] | > 100 nM | 30 to 100 nM | 1 to 10 nM |  | F (a selectivity ratio greater than 50 but less than or equal to 150)

The next lines start with results.

Row | IC50 [1] | IC50 [2] | IC50 [3] | Compound | FGFR1 IC50/FGFR2 IC50 [3] | FGFR3 IC50/FGFR2 IC50 [3]
4 | 30 to 100 nM | 10 to 30 nM | ≤ 1 nM | C=CC(=O)N1CCC2(CC=C(c3c(C4COC4)c4c(N)ncnc4n3C)CC2)CC1 [Example 55, 1-(9-(4-amino-7-methyl-5-(oxetan-3-yl)-7H-pyrrolo[2,3-d]pyrimidin-6-yl)-3-azaspiro[5.5]undec-8-en-3-yl)prop-2-en-1-one] |  | F (a selectivity ratio greater than 50 but less than or equal to 150)
5 | > 100 nM | > 100 nM | 1 to 10 nM | C=CC(=O)N1CCC2(CC=C(c3c(-c4ccc(F)cc4)c4c(N)ncnc4n3C)CO2)CC1 [Example 41, 1-(3-(4-amino-5-(4-fluorophenyl)-7-methyl-7H-pyrrolo[2,3-d]pyrimidin-6-yl)-1-oxa-9-azaspiro[5.5]undec-3-en-9-yl)prop-2-en-1-one] | H (a selectivity ratio greater than 500 but less than or equal to 1000) | H (a selectivity ratio greater than 500 but less than or equal to 1000)
6 | > 100 nM | > 100 nM | 1 to 10 nM | C=CC(=O)N1CCC2(CC=C(c3c(-c4ncc(OC5COC5)cn4)c4c(N)ncnc4n3C)CC2)CC1 [Example 46, 1-(9-(4-amino-7-methyl-5-(5-(oxetan-3-yloxy)pyrimidin-2-yl)-7H-pyrrolo[2,3-d]pyrimidin-6-yl)-3-azaspiro[5.5]undec-8-en-3-yl)prop-2-en-1-one] | H (a selectivity ratio greater than 500 but less than or equal to 1000) | J (a selectivity ratio greater than 2000)
7 | > 100 nM | > 100 nM | > 100 nM | C=CC(=O)N1CCC2(CC=C(c3c(-c4ccnn4C)c4c(N)ncnc4n3C)CC2)CC1 [Example 13, 1-(9-(4-amino-7-methyl-5-(1-methyl-1H-pyrazol-5-yl)-7H-pyrrolo[2,3-d]pyrimidin-6-yl)-3-azaspiro[5.5]undec-8-en-3-yl)prop-2-en-1-one] |  | 
